Measurements as given in patent US7056940B2, “Insecticidal 3-(2,6-disubstituted phenyl)-5-[5-arylthien-2-yl]-1,2,4-triazoles” (Dow AgroSciences LLC, priority 2001, dated 2006).

Legend:
Assay type in all cases: in vivo
[1] = system: Sweetpotato Whitefly (Bemisia tabacia); experiment: Insecticidal test for sweetpotato whitefly, spray on cotton plants; design: key: A: 90–100; B: 80–89; C: 70–79; D: 60–69; E: 50–59; F: less than 50; G: Inactive; conditions: 200 ppm spray, 13 days, large nymphs
Description: Insecticidal Test for Sweetpotato Whitefly (Bemisia tabacia)
Four mg of each test compound was dissolved by adding 4 mL of a 90:10 acetone:ethanol solvent mixture to the vial containing the sample compound. This solution was added to 16 mL of water containing 0.05% Tween 20 surfactant to produce 20 mL of an 200 ppm spray solution.
Five-week-old cotton plants reared in a greenhouse were stripped of all foliage except for the two uppermost true leaves that were greater than 5 cm in diameter. These plants were then placed into a laboratory colony of whiteflies for two days for oviposition by the colony females. All whiteflies were then removed from the test plants with pressurized air. The spray solution was then applied to the test plants with a hand-held syringe fitted with hollow cone nozzle. One mL spray solution was applied to each leaf top and bottom for a total of 4 mL per plant. Four replications of each test compound utilized a total of 16 mL spray solution. Plants were air dried and then placed in a holding chamber (28° C. and 60% RH) for 13 days. Compound efficacy was evaluated by counting, under an illuminated magnifying glass, the number of large nymphs (3rd–4th instar) per leaf.
Percent control based on reduction of large nymphs of a test compound compared to solution-only (no test compound) sprayed plants is reported in Tables 1–4.

[2] = system: Cabbage Looper (Trichoplusia ni); experiment: Insecticidal test for cabbage looper, treated cabbage leaf disc; conditions: cabbage leaf-dip, 2nd instar larvae, 5 days
Text: (§1) The compounds are useful for reducing populations of insects and mites and are useful in a method of inhibiting an insect or mite population which comprises applying to a locus of the insect or mite an effective insect- or mite-inactivating amount of a compound of formula (1). The “locus” of insects or mites is a term used herein to refer to the environment in which the insects or mites live or where their eggs are present, including the air surrounding them, the food they eat, or objects which they contact. For example, insects or mites which eat or contact edible or ornamental plants can be controlled by applying the active compound to plant parts such as the seed, seedling, or cutting which is planted, the leaves, stems, fruits, grain, or roots, or to the soil in which the roots are growing. It is contemplated that the compounds might also be useful to protect textiles, paper, stored grain, seeds, domesticated animals, buildings or human beings by applying an active compound to or near such objects. The term “inhibiting an insect or mite” refers to a decrease in the numbers of living insects or mites, or a decrease in the number of viable insect or mite eggs. The extent of reduction accomplished by a compound depends, of course, upon the application rate of the compound, the particular compound used, and the target insect or mite species. At least an inactivating amount should be used. The terms “insect-inactivating amount” and “mite-inactivating amount” are used to describe the amount, which is sufficient to cause a measurable reduction in the treated insect or mite population. Generally an amount in the range from about 1 to about 1000 ppm by weight active compound is used. For example, insects and mites which can be inhibited include, but are not limited to: • Lepidoptera—Heliothis spp., Helicoverpa spp., Spodoptera spp., Mythimna unipuncta, Agrotis ipsilon, Earias spp., Euxoa auxiliaris, Trichoplusia ni, Anticarsia gemmatalis, Rachiplusia nu, Plutella xylostella, Chilo spp., Scirpophaga incertulas, Sesamia inferens, Cnaphalocrocis medinalis, Ostrinia nubilalis, Cydia pomonella, Carposina niponensis, Adoxophyes orana, Archips argyrospilus, Pandemis heparana, Epinotia aporema, Eupoecilia ambiguella, Lobesia botrana, Polychrosis viteana, Pectinophora gossypiella, Pieris rapae, Phyllonorycter spp., Leucoptera malifoliella, Phyllocnisitis citrella • Coleoptera—Diabrotica spp., Leptinotarsa decemlineata, Oulema oryzae, Anthonomus grandis, Lissorhoptrus oryzophilus, Agriotes spp., Melanotus communis, Popillia japonica, Cyclocephala spp., Tribolium spp. • Homoptera—Aphis spp., Myzus persicae, Rhopalosiphum spp., Dysaphis plantaginea, Toxoptera spp., Macrosiphum euphorbiae, Aulacorthum solani, Sitobion avenae, Metopolophium dirhodum, Schizaphis graminum, Brachycolus noxius, Nephotettix spp., Nilaparvata lugens, Sogatella furcifera, Laodelphax striatellus, Bemisia tabaci, Trialeurodes vaporariorum, Aleurodes proletella, Aleurothrixus floccosus, Quadraspidiotus perniciosus, Unaspis yanonensis, Ceroplastes rubens, Aonidiella aurantii • Hemiptera—Lygus spp., Eurygaster maura, Nezara viridula, Piezodorus guildingi, Leptocorisa varicornis • Thysanoptera—Frankliniella occidentalis, Thrips spp., Scirtothrips dorsalis • Isoptera—Reticulitermes flavipes, Coptotermes formosanus • Orthoptera—Blattella germanica, Blatta orientalis, Gryllotalpa spp. • Diptera—Liriomyza spp., Musca domestica, Aedes spp., Culex spp., Anopheles spp. • Hymenoptera—Iridomyrmex humilis, Solenopsis spp., Monomorium pharaonis, Atta spp., Pogonomyrmex spp., Camponotus spp. • Siphonaptera—Ctenophalides spp., Pulex irritans • Acarina—Tetranychus spp., Panonychus spp., Eotetranychus carpini, Phyllocoptruta oleivora, Aculus pelekassi, Brevipalpus phoenicis, Boophilus spp., Dermacentor variabilis, Rhipicephalus sanguineus, Amblyomma americanum, Ixodes spp., Notoedres cati, Sarcoptes scabiei, Dermatophagoides spp. […]

[3] = system: Cotton Aphid (Aphis gossypii); experiment: Insecticidal test for cotton aphid, spray on infested squash cotyledons; conditions: 50 ppm spray, 3 days
Description: Insecticidal Test for Cotton Aphid (Aphis gossypii)
To prepare spray solutions, 1 mg of each test compound was dissolved into 1 mL of a 90:10 acetone:ethanol solvent. This 1 mL of chemical solution was added to 19 mL of water containing 0.05% Tween 20 surfactant to produce a 50 ppm spray solution.
Squash cotyledons were infested with cotton aphid (all life stages) 16–20 hours prior to application of spray solution. The solution was sprayed on both sides of each infested squash cotyledon (0.5 mL×2 each side) with a sweeping action until runoff. The plants were allowed to air dry and held for 3 days in a controlled room at 26° C. and 40% RH after which time the test was graded. Grading was by actual count using a dissecting microscope and comparison of test counts to the untreated check. Results are given in Tables 1–4 as percent control based on population reduction versus the untreated.

[4] = system: Two-spotted Spider Mite (Tetranychus urticae); experiment: Insecticidal test for two-spotted spider mite, ovicide method; design: key: A: 90–100; B: 80–89; C: 70–79; D: 60–69; E: 50–59; F: less than 50; G: Inactive; conditions: cotton leaf discs, 6 days
Description: Insecticidal Test for Two-spotted Spider Mite (Tetranychus urticae)
Ten adult female two-spotted spider mites were placed on eight 2.2 cm leaf discs of cotton leaf, allowed to oviposit over 24 hours, and thereafter removed. […] Discs were placed on an agar substrate and held at 24° C. and 90% RH for 6 days.

[5] = system: Beet Armyworm (Spodoptera exigua); experiment: Insecticidal test for beet armyworm, treated lepidopteran diet; design: key: A: 90–100; B: 80–89; C: 70–79; D: 60–69; E: 50–59; F: less than 50; G: Inactive; conditions: on diet surface, second-instar larvae, 5 days
Text: as §1

[6] = system: Tobacco Budworm (Heliothis virescens); experiment: Insecticidal test for tobacco budworm, treated cotton cotyledon leaf disc; design: key: A: 90–100; B: 80–89; C: 70–79; D: 60–69; E: 50–59; F: less than 50; G: Inactive; conditions: cotton cotyledon leaf-dip, 2nd instar larvae, 5 days
Text: as §1

| Structure (SMILES) | WF: activity at 200 ppm against whitefly (% control rating) [1] | CL: activity at 400 ppm against cabbage looper (% control rating) [2] | CA: activity at 50 ppm against cotton aphid (% control rating) [3] | SM: activity against two-spotted spider mite (% control rating) [4] | BAW: activity at 400 ppm against beet armyworm (% control rating) [5] | TBW: activity at 400 ppm against tobacco budworm (% control rating) [6] |
| --- | --- | --- | --- | --- | --- | --- |
| Cc1cc(-c2ccc(OC(F)(F)C(Cl)Cl)cc2)sc1-c1nc(-c2c(F)cccc2Cl)nn1C | E (50–59) | A (90–100) | A (90–100) | B (80–89) | A (90–100) | A (90–100) |
| Cc1cc(-c2ccc(OC(F)(F)C(F)C(F)(F)F)cc2)sc1-c1nc(-c2c(F)cccc2Cl)nn1C (stereo not drawn) | F (less than 50) | A (90–100) | B (80–89) | A (90–100) | A (90–100) | A (90–100) |
| Cn1nc(-c2c(F)cccc2Cl)nc1-c1sc(-c2ccc(OC(F)(F)C(F)Br)cc2)cc1Cl (stereo not drawn) | G | A (90–100) | E (50–59) | C (70–79) | A (90–100) | A (90–100) |
| Cn1nc(-c2c(F)cccc2Cl)nc1-c1cc(-c2ccc3c(c2)OCC3)sc1Cl | G | A (90–100) | C (70–79) | G | G | F (less than 50) |
| Cn1nc(-c2c(F)cccc2Cl)nc1-c1cc(-c2cccc(OC(F)(F)F)c2)sc1Cl | G | A (90–100) | A (90–100) | A (90–100) | G | G |
| Cn1nc(-c2c(F)cccc2Cl)nc1-c1csc(-c2ccc(Cl)cc2F)c1 | F (less than 50) | A (90–100) | B (80–89) | A (90–100) | G | F (less than 50) |
| Cn1nc(-c2c(F)cccc2Cl)nc1-c1cc(-c2ccc(C(F)(F)F)cc2F)sc1Cl | F (less than 50) | A (90–100) | F (less than 50) | G | A (90–100) | F (less than 50) |
| Cn1nc(-c2c(F)cccc2Cl)nc1-c1cc(-c2ccc(Cl)cc2F)sc1Cl | F (less than 50) | A (90–100) | F (less than 50) | A (90–100) | A (90–100) | F (less than 50) |
| Cc1sc(-c2cccc(OC(F)(F)F)c2)cc1-c1nc(-c2c(F)cccc2Cl)nn1C | F (less than 50) | A (90–100) | A (90–100) | A (90–100) | G | G |
| Cc1sc(-c2ccc(Cl)cc2F)cc1-c1nc(-c2c(F)cccc2Cl)nn1C | F (less than 50) | A (90–100) | B (80–89) | A (90–100) | A (90–100) | G |
| Cc1c(-c2nc(-c3c(F)cccc3Cl)nn2C)csc1-c1ccc(C(F)(F)F)cc1F | A (90–100) | A (90–100) | A (90–100) | F (less than 50) | A (90–100) | B (80–89) |
| Cc1sc(-c2ccc(C(F)(F)F)cc2F)cc1-c1nc(-c2c(F)cccc2Cl)nn1C | G | A (90–100) | F (less than 50) | B (80–89) | A (90–100) | G |
| Cn1nc(-c2c(F)cccc2Cl)nc1-c1csc(-c2ccc(OC(F)(F)F)cc2F)c1 | G | F (less than 50) | C (70–79) | F (less than 50) | G | G |
